ChEMBL document CHEMBL5385952, “Facile Synthesis and First Antifungal Exploration of Tetracyclic Meroterpenoids: (+)-Aureol, (-)-Pelorol, and Its Analogs” (J Nat Prod, 2024)
pEC50: −log10 of the molar value.

Assays:
[1] = system: Fusarium graminearum; test: Antifungal activity against Fusarium graminearum at 150 uM; format: functional
[2] = system: Botrytis cinerea; test: Antifungal activity against Botrytis cinerea at 150 uM; format: functional
[3] = system: Rhizoctonia solani; test: Antifungal activity against Rhizoctonia solani at 150 uM; format: functional
[4] = system: Phytophthora capsici; test: Antifungal activity against Phytophthora capsici at 150 uM; format: functional
[5] = system: Sclerotinia sclerotiorum; test: Antifungal activity against Sclerotinia sclerotiorum at 150 uM; format: functional
[6] = system: Rhizoctonia solani; test: Antifungal activity against Rhizoctonia solani
[7] = system: Sclerotinia sclerotiorum; test: Antifungal activity against Sclerotinia sclerotiorum

**Q.** `Cc1cc(O)c(O)c2c1[C@]1(C)CC[C@H]3C(C)(C)CCC[C@]3(C)[C@H]1C2` was tested. Which Activity [1] did it give?
**A.** Its Activity is 42%.

**Q.** And the Activity [2]?
**A.** The Activity was 70%.

**Q.** And the Activity [3]?
**A.** The Activity was 50%.

**Q.** What about the Activity [4] of the same compound?
**A.** The Activity was 59%.

**Q.** And the Activity [5]?
**A.** The Activity was 49%.

**Q.** How did the Activity [1] turn out when `CC1(C)CCC[C@]2(C)[C@H]3Cc4cc(O)ccc4[C@]3(C)CC[C@@H]12` was run?
**A.** The Activity was 37%.

**Q.** What about the Activity [2] of the same compound?
**A.** Its Activity is 34%.

**Q.** And the pEC50 [6]?
**A.** Its pEC50 is 4.47.

**Q.** What about the pEC50 [7] of the same compound?
**A.** Its pEC50 is less than 3.82.

**Q.** And the Activity [3]?
**A.** Its Activity is 62%.

**Q.** And the Activity [4]?
**A.** Its Activity is 33%.

**Q.** And the Activity [5]?
**A.** Its Activity is 51%.

**Q.** What does the source list for `CC1(C)CCC[C@]2(C)[C@H]3Cc4cc(O)ccc4O[C@]3(C)CC[C@@H]12`?
**A.** pEC50 [6]: 4.80; pEC50 [7]: 4.54

**Q.** For `COC(=O)c1cc(O)c(O)c2c1[C@]1(C)CC[C@H]3C(C)(C)CCC[C@]3(C)[C@H]1C2` [PELOROL], which Activity [1] is on record?
**A.** The Activity was 62%.

**Q.** And the Activity [2]?
**A.** The Activity was 52%.

**Q.** What about the pEC50 [6] of the same compound?
**A.** Its pEC50 is 5.11.

**Q.** And the pEC50 [7]?
**A.** The pEC50 was 4.31.

**Q.** And the Activity [3]?
**A.** Its Activity is 87%.

**Q.** And the Activity [4]?
**A.** Its Activity is 40%.

**Q.** And the Activity [5]?
**A.** The Activity was 75%.

**Q.** What does the source list for `CC1(C)CCC[C@]2(C)[C@H]3Cc4c(O)c(O)cc(C(=O)O)c4[C@]3(C)CC[C@@H]12`?
**A.** Activity [1]: 51%; Activity [2]: 56%; pEC50 [6]: 4.74; pEC50 [7]: 4.59; Activity [3]: 73%; Activity [4]: 55%; Activity [5]: 76%

**Q.** Which results are given for `CCc1cc(O)c(O)c2c1[C@]1(C)CC[C@H]3C(C)(C)CCC[C@]3(C)[C@H]1C2`?
**A.** Activity [1]: 53%; Activity [2]: 37%; Activity [3]: 41%; Activity [4]: 32%; Activity [5]: 37%

**Q.** How did the Activity [1] turn out when `CC1(C)CCC[C@]2(C)[C@H]3Cc4c(cc(C=O)c(O)c4O)[C@]3(C)CC[C@@H]12` was run?
**A.** The Activity was 37%.

**Q.** And the Activity [2]?
**A.** Its Activity is 15%.

**Q.** And the Activity [3]?
**A.** Its Activity is 3%.

**Q.** And the Activity [4]?
**A.** The Activity was 3%.

**Q.** And the Activity [5]?
**A.** The Activity was 34%.

**Q.** Which results are given for `CC1(C)CCC[C@]2(C)[C@H]3Cc4cc(O)cc(O)c4[C@]3(C)CC[C@@H]12`?
**A.** Activity [1]: 60%; Activity [2]: 39%; Activity [3]: 68%; Activity [4]: 65%; Activity [5]: 43%

**Q.** Which results are given for `Cc1cc2c(cc1O)C[C@@H]1[C@@]3(C)CCCC(C)(C)[C@@H]3CC[C@@]21C`?
**A.** Activity [1]: 32%; Activity [2]: 24%; Activity [3]: 58%; Activity [4]: 9%; Activity [5]: 31%

**Q.** For `CC1(C)CCC[C@]2(C)[C@H]3Cc4c(O)c(O)cc(C=O)c4[C@]3(C)CC[C@@H]12`, which Activity [1] is on record?
**A.** Its Activity is 55%.

**Q.** And the Activity [2]?
**A.** The Activity was 33%.

**Q.** And the Activity [3]?
**A.** Its Activity is 43%.

**Q.** What about the Activity [4] of the same compound?
**A.** Its Activity is 29%.

**Q.** And the Activity [5]?
**A.** Its Activity is 28%.

**Q.** `C[C@H]1CC[C@H]2C(C)(C)CCC[C@]23Oc2ccc(O)cc2C[C@]13C` [AUREOL] was tested. Which pEC50 [6] did it give?
**A.** The pEC50 was 5.16.

**Q.** And the pEC50 [7]?
**A.** The pEC50 was 4.72.

**Q.** With `CC1(C)CCC[C@]2(C)[C@H]3Cc4c(ccc(O)c4O)[C@]3(C)CC[C@@H]12` as the compound, how does the Activity [1] read?
**A.** The Activity was 71%.

**Q.** And the Activity [2]?
**A.** Its Activity is 43%.

**Q.** What about the Activity [3] of the same compound?
**A.** Its Activity is 62%.

**Q.** And the Activity [4]?
**A.** The Activity was 60%.

**Q.** What about the Activity [5] of the same compound?
**A.** Its Activity is 63%.

**Q.** What does the source list for `Cc1cc(O)cc2c1[C@]1(C)CC[C@H]3C(C)(C)CCC[C@]3(C)[C@H]1C2`?
**A.** Activity [1]: 11%; Activity [2]: 7%; Activity [3]: 16%; Activity [4]: 5%; Activity [5]: 11%
